Measurements as given in patent publication US20210052582A1, “METHODS OF USE AND PHARMACEUTICAL COMPOSITIONS OF A SELECTIVE SYK INHIBITOR” (Portola Pharmaceuticals, Inc., priority 2018, published 2021).
Counter-ions that a name gives are not always drawn. Each block holds one compound with its values, some of them ahead of it.

How the values were obtained:
[1] = Dissolution study of HCl salt and free base in formulation buffer; type: physicochemical; details: for solubility (visual appearance): 10 mg/mL (1%) in pH 6, 10 mM citrate buffer, 1% PEG400, 1% Glycerin, 0.3% NaCl, 0.05% PS80
Experimental: A dissolution study was performed in which the HCl salt or the free base were added to the following formulation buffer at a concentration of 10 mg/mL (1%): • pH 6, 10 mM citrate buffer, 1% PEG400, 1% Glycerin, 0.3% NaCl, 0.05% PS80.
The pH was increased for soluble samples to better understand their properties. The appearance of the samples was visually observed for clarity or cloudiness. […] The free base was not soluble.

[2] = tested on: patients with acute or chronic allergic conjunctivitis; experiment: Clinical conjunctival allergen challenge (CAC) study; type: in vivo, human
Excerpt: In a study utilizing the clinical model of the conjunctival allergen challenge (CAC) qualifying patients with acute or chronic allergic conjunctivitis were randomized to receive one of the five interventions listed below, each was given six doses at 1 drop per dose. The CAC model is a standardized clinical methodology for evaluation of novel drugs for allergy and anti-inflammatory activity, accepted by the FDA for clinical development of novel therapeutics, and has been used for development of 19 drugs currently on the market. In the CAC model, doses of allergen are administered in a controlled fashion to patients eyes in the office setting to induce a controlled allergic reaction. Drug is administered at pre-specified timepoints and signs and symptoms are collected also at pre-specified timepoints to assess efficacy.
• Composition A: 0.5% w/w Compound 1 HCl salt, 1.5% w/w glycerin, 0.01% w/w BAC in 10 mM phosphate buffer, pH 6.0. • Composition B: 1.0% w/w Compound 1 HCl salt, 1.5% w/w glycerin, 0.01% w/w BAC in 10 mM phosphate buffer, pH 6.0. • Placebo: 0.01% w/w BAC, 1.5% w/w glycerol, pH 6.0. After receiving screening and baseline CACs, patients were assigned in a masked randomization fashion to receive a study treatment at 8 hour or 15 min pre-CAC at Visits 4b and 5, respectively. […]
• Ocular Itching [Time Frame: 5, 7, and 10 minutes post allergen administration (CAC)] Ocular Itching were assessed by the subjects using a 0-4 scale (0=none to 4=severe). Average of ocular itching score over both eyes were analyzed. • Conjunctival Redness [Time Frame: 7, 15, and 20 minutes post allergen administration CAC] • Conjunctival Redness were assessed by the investigator using a 0-4 scale (0=none to 4=severe). Average of conjunctival redness score over both eyes were analyzed. • Other variables assessed for efficacy include lid swelling, chemosis, tearing, nasal symptoms, and indication of biological activity via exploratory assessment of biomarkers, and exploratory imaging of inflammation with in vivo confocal microscopy. […]

[3] = Free base solubilization with solubilizers; type: physicochemical; details: aqueous solubilizer (excipient) mixture, aqueous with cosolvent or surfactant or cyclodextrin; combination of 3% Glycerin, 5% PEG 400, 5% PEG-35 castor oil, 15% polysorbate 60, 4% polysorbate 80, 2% PVP K29/32, 10% propylene glycol
Excerpt: The free base was not soluble with various solubilizers.

[4] = tested on: Mice sensitized with short ragweed allergen; experiment: Murine model of allergic conjunctivitis (conjunctival allergen challenge, short ragweed); type: in vivo, mouse
Experimental: Mice were sensitized with subcutaneously injected short ragweed allergen (day 1, day 11), and underwent conjunctival allergen challenge (CAC) on day 18 with short ragweed allergen. Following challenge, the mice were randomized into treatment groups (n=8) and given topical test compounds: vehicle, 0.1% Compound 1, 1% Compound 1, 1% prednisolone, or saline (BSS) twice a day for 2 days, and three times a day for an additional 4 days during allergen challenges. Challenges were conducted twice daily, on day 21 thru 24. Responses to allergen challenge were evaluated after challenges 1, 4, 6 and 8.

solubility (visual appearance) [1]: soluble even at a pH of 6 | behaviour as pH was increased from 6 ([1]; same formulation buffer, pH increased): precipitates formed
SMILES: NC(=O)c1cnc(N[C@@H]2CCCC[C@@H]2N)nc1Nc1cccc(-c2ncccn2)c1 [HCl salt, 2-((1R,2S)-2-aminocyclohexylamino)-4-(3-(pyrimidin-2-yl)phenylamino)pyrimidine-5-carboxamide]

solubility (visual appearance) ([1]; listed as free base): not soluble | solubility [3]: 1000 to 10000 µg/mL
SMILES: NC(=O)c1cnc(N[C@@H]2CCCC[C@@H]2N)nc1Nc1cccc(-c2ncccn2)c1 [Compound 1, 2-((1R,2S)-2-aminocyclohexylamino)-4-(3-(pyrimidin-2-yl)phenylamino)pyrimidine-5-carboxamide]
treatment emergent adverse events ([2]; Compound 1 groups): rated mild | biological effect ([2]; both concentrations (0.5%, 1%)): clear and consistent biological effect | reduction of redness, 8 hours versus 15 minutes following dosing ([2]; human, in vivo): reduced redness to a greater extent at 8 hours following dosing compared with 15 minutes | test days with statistically significant reduction in overall mean hyperemia ([4]; 1% Compound 1): 3 of 4 | test days with significantly reduced mean change in hyperemia compared to saline ([4]; Compound 1 (0.1%), topical): 2 of 4 | test days with significantly reduced mean change in hyperemia (pre-versus post-CAC) compared to saline ([4]; Compound 1 (1%), topical): 4 of 4 | ocular discharge, lid swelling, or squinting ([4]; mouse, in vivo): No significant changes | relief of allergic conjunctivitis ([4]; murine model): showed efficacy

SMILES: C[C@]12C=CC(=O)C=C1CC[C@@H]1[C@@H]2[C@@H](O)C[C@@]2(C)[C@H]1CC[C@]2(O)C(=O)CO [prednisolone, reference compound]
test days with significant decrease in the mean change in hyperemia ([4]; prednisolone (1.0%), topical, positive control): 2 of 4
